These results are taken from patent US9090593B2, “Bicyclic compounds as Pim inhibitors” (AMGEN INC., priority 2010, dated 2015).

pIC50: −log10 of the molar value. Like-named read-outs stand apart in the source and are kept apart here.

For experiment [1], the target named is T1, Pim-2 stably transfected into the U2OS human osteogenic sarcoma line (Homo sapiens, UniProt Q9P1W9).
T1 construct: expressed in transfected cells; host or cells: U2OS human osteogenic sarcoma line
Description: Pim cell assay, phospho-BAD normalized against total BAD, U2OS stably transfected with Pim-2. Further: high dose 31.6 µM. The class given is cell-based. Particulars: read-out: Pim2_Cell_IC50. A digest of the protocol: (§1)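 U2OS cells stably expressing Pim-1 or Pim-2 were plated overnight at 37 °C, then dosed over a 10-point curve (final 0.3% DMSO; DMSO alone as high control). Lysates assayed for phospho- and total BAD by Meso Scale immunoassay; % phosphoprotein = (2×phospho)/(phospho+total)×100.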

In experiment [2] the target is T2, full length recombinant Pim-1 protein (Homo sapiens, UniProt P11309).
T2 construct: by full length recombinant Pim-1, Pim-2, or Pim-3 protein; hexahistidine tag followed by a thrombin cleavage site (N); made in house; host or cells: Sf9 (baculovirus) or E. coli (pET28)
T2 sequence (P11309 whole entry): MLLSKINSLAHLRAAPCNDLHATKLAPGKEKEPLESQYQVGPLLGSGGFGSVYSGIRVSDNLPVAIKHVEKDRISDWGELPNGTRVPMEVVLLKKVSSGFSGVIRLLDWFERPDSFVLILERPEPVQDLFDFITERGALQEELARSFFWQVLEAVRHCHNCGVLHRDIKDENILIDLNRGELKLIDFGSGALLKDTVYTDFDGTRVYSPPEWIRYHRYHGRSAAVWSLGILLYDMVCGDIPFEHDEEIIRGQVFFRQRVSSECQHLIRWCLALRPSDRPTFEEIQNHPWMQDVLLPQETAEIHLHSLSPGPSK
Description: Pim-1 enzyme assay (HTRF, phosphorylation of biotinylated-BAD (S112) peptide). Particulars: enzyme assay, Pim-1; read-out: Pim_1_IC50. The format is biochemical. A digest of the protocol:
(§2)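 Full-length His-tagged Pim-1 or Pim-2 (Sf9 or E. coli expressed, purified) phosphorylated biotinylated BAD (S112) peptide in 60 mM Hepes pH 7.0, 0.05% BSA, 2 mM DTT. Reaction stopped with 3 mM EDTA; phospho-BAD read by HTRF with Eu anti-phospho-BAD antibody and streptavidin-APC. IC50 from percent of control by 4-parameter logistic fit.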
(In TR-FRET formats the signal depends on donor and acceptor labels being close together.)

In experiment [3] the target is T3, full length recombinant Pim-3 protein (Homo sapiens, UniProt Q86V86).
T3 construct: by full length recombinant Pim-1, Pim-2, or Pim-3 protein; purchased Millipore (UK)
Put plainly: Pim-3 enzyme assay (HTRF, phosphorylation of biotinylated-BAD (S112) peptide). The class given is biochemical. Particulars: read-out: Pim3 IC50. The method, boiled down: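 Full-length recombinant Pim-3 phosphorylates biotinylated BAD (S112) peptide in 60 mM Hepes pH 7.0, 0.05% BSA, 2 mM DTT; reaction stopped with 3 mM EDTA. Phospho-BAD detected by HTRF (Eu anti-phospho-BAD S112 antibody, streptavidin-APC). IC50 from percent-of-control values fitted to a 4-parameter logistic model.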

For experiment [4], the target named is T4, full length recombinant Pim-2 protein (Homo sapiens, UniProt Q9P1W9).
T4 construct: by full length recombinant Pim-1, Pim-2, or Pim-3 protein; hexahistidine tag followed by a thrombin cleavage site (N); made in house; host or cells: Sf9 (baculovirus) or E. coli (pET28)
T4 sequence (Q9P1W9 whole entry): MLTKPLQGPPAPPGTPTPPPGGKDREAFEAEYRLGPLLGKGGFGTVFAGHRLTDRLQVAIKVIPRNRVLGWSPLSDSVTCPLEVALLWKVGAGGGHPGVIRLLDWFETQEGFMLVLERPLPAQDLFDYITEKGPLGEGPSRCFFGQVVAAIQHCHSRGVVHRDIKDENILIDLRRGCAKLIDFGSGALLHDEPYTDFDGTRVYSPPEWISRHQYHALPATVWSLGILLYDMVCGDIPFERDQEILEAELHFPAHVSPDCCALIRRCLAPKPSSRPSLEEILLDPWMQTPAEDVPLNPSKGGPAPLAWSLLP
Description: Pim-2 enzyme assay (HTRF, phosphorylation of biotinylated-BAD (S112) peptide). The format is biochemical. The conditions noted are these: enzyme assay, Pim-2; read-out: Pim2_IC50. A digest of the protocol: as §2

Experiment [5] concerns the target T5, Pim-1 stably transfected into the U2OS human osteogenic sarcoma line (Homo sapiens, UniProt P11309).
T5 construct: expressed in transfected cells; host or cells: U2OS human osteogenic sarcoma line
Description: Pim cell assay, phospho-BAD normalized against total BAD, U2OS stably transfected with Pim-1. The class given is cell-based. Particulars: read-out: Pim1_Cell_IC50. The method, boiled down:
as §1

Where [6] appears, read: U2OS cells stably transfected with Pim-2, phospho-BAD, high dose […].
Setting [7] is: U2OS cells stably transfected with Pim-1, phospho-BAD, high dose […].

T5 sequence (P11309 whole entry): as the sequence (P11309 whole entry) above
T1 sequence (Q9P1W9 whole entry): as the sequence (Q9P1W9 whole entry) above

For the compound `CN(c1cncc(-c2n[nH]c3ccc(-c4c(F)cccc4F)cc23)n1)C1CCCNC1` (stereo not shown) [Example 178, 6-(5-(2,6-difluorophenyl)-1H-indazol-3-yl)-N-methyl-N-3-piperidinyl-2-pyrazinamine], the pIC50 was 4.85 in experiment [1] (setting [6]); 8.22 in experiment [2]; 8.22 in experiment [3]; 7.21 in experiment [4]; 6.24 in experiment [5] (setting [7]).

In the case of `COc1cccc(-c2ccc3[nH]nc(-c4cncc(N5CCC(N)CC5)n4)c3c2)c1` [Example 77, 1-(6-(5-(3-methoxyphenyl)-1H-indazol-3-yl)-2-pyrazinyl)-4-piperidinamine], the pIC50 was below 4.50 in experiment [1] (setting [6]); 8.22 in experiment [2]; 8.52 in experiment [3]; 7.15 in experiment [4]; 6.34 in experiment [5] (setting [7]).

Consider `NC1CCN(c2cncc(-c3n[nH]c4ccc(-c5cccc(F)c5F)cc34)n2)CC1` [Example 71, 1-(6-(5-(2,3-difluorophenyl)-1H-indazol-3-yl)-2-pyrazinyl)-4-piperidinamine], for which the pIC50 was 5.05 in experiment [1] (setting [6]); 8.52 in experiment [2]; 9.00 in experiment [3]; 7.96 in experiment [4]; 6.59 in experiment [5] (setting [7]).

For `CN1CCOc2cc(-c3ccc4[nH]nc(-c5cncc(N6CCC(N)CC6)n5)c4c3)cnc21` [Example 58, 1-(6-(5-(4-methyl-3,4-dihydro-2H-pyrido[3,2-b][1,4]oxazin-7-yl)-1H-indazol-3-yl)-2-pyrazinyl)-4-piperidinamine], the pIC50 in experiment [1] (setting [6]) was 5.17; in experiment [2], 8.70; in experiment [3], 9.00; in experiment [4] it was 7.96; in experiment [5] (setting [7]), 6.79.

With `FC(F)(F)c1cccc(-c2ccc3[nH]nc(-c4cncc(O[C@@H]5CCCNC5)n4)c3c2)n1` [Example 142, 3-(6-((3R)-3-piperidinyloxy)-2-pyrazinyl)-5-(6-(trifluoromethyl)-2-pyridinyl)-1H-indazole], the pIC50 in experiment [1] (setting [6]) is below 4.50; in experiment [2], 7.72; in experiment [3], 8.22; in experiment [4] it was 7.06; in experiment [5] (setting [7]), 6.20.

For `NC1CCN(c2cncc(-c3c[nH]c4ccc(-c5c(F)cccc5Cl)cc34)n2)CC1` [Example 27, 1-(6-(5-(2-chloro-6-fluorophenyl)-1H-indol-3-yl)pyrazin-2-yl)piperidin-4-amine bis(2,2,2-trifluoroacetate)], the pIC50 in experiment [1] (setting [6]) is 4.57; in experiment [2], 8.00; in experiment [3] it was 8.05; in experiment [4] it was 7.32; in experiment [5] (setting [7]) it was 6.11.

`N#Cc1cccc(-c2ccc3[nH]nc(-c4cncc(N5CCC(N)CC5)n4)c3c2)c1` [Example 62, 3-(3-(6-(4-amino-1-piperidinyl)-2-pyrazinyl)-1H-indazol-5-yl)benzonitrile]: the pIC50 in experiment [1] (setting [6]) is below 4.50; in experiment [2], 7.96; in experiment [3], 8.15; in experiment [4], 7.23; in experiment [5] (setting [7]), 6.22.

Consider `Fc1cccc(F)c1-c1ccc2[nH]cc(-c3cncc(NC4CCNCC4)n3)c2c1` [Example 205, 6-(5-(2,6-difluorophenyl)-1H-indol-3-yl)-N-4-piperidinyl-2-pyrazinamine], for which the pIC50 is 5.36 in experiment [1] (setting [6]); 8.40 in experiment [2]; 8.40 in experiment [3]; 7.54 in experiment [4]; 6.56 in experiment [5] (setting [7]).

Turning to `CS(=O)(=O)c1ccc(-c2ccc3[nH]nc(-c4cncc(N5CCC(N)CC5)n4)c3c2)cc1` [Example 59, 1-(6-(5-(4-(methylsulfonyl)phenyl)-1H-indazol-3-yl)-2-pyrazinyl)-4-piperidinamine], the pIC50 in experiment [1] (setting [6]) is below 4.50; in experiment [2], 8.52; in experiment [3], 7.96; in experiment [4] it was 7.55; in experiment [5] (setting [7]), 5.67.

`CN1CCN(c2ccc3[nH]nc(-c4cncc(N5CCC(N)CC5)n4)c3c2)C1=O` [Example 92, 1-(3-(6-(4-amino-1-piperidinyl)-2-pyrazinyl)-1H-indazol-5-yl)-3-methyl-2-imidazolidinone]: the pIC50 in experiment [1] was below 4.50; in experiment [2], 8.05; in experiment [3], 8.30; in experiment [4], 7.24; in experiment [5] it was 5.65.

In the case of `Nc1cc(-c2ccc3[nH]nc(-c4cncc(N5CCC(N)CC5)n4)c3c2)ccn1` [Example 100, 4-(3-(6-(4-amino-1-piperidinyl)-2-pyrazinyl)-1H-indazol-5-yl)-2-pyridinamine], the pIC50 in experiment [1] (setting [6]) was below 4.50; in experiment [2] it was 9.00; in experiment [3], 8.70; in experiment [4] it was 7.74; in experiment [5] (setting [7]), 5.90.

For `CC(C)(C)NC(=O)c1ccc(F)c(-c2ccc3[nH]nc(-c4cncc(N5CCC(N)CC5)n4)c3c2)c1` [Example 37, 3-(3-(6-(4-amino-1-piperidinyl)-2-pyrazinyl)-1H-indazol-5-yl)-N-tert-butyl-4-fluorobenzamide], the pIC50 is 5.45 in experiment [1] (setting [6]); 7.89 in experiment [2]; 8.30 in experiment [3]; 7.72 in experiment [4]; 6.24 in experiment [5] (setting [7]).

On to `COc1cccc(-c2ccc3[nH]nc(-c4cncc(N5CCC(N)CC5)n4)c3c2)c1F` [Example 4, 1-(6-(5-(2-fluoro-3-methoxyphenyl)-1H-indazol-3-yl)pyrazin-2-yl)piperidin-4-amine], for which the pIC50 in experiment [1] (setting [6]) is below 4.50; in experiment [2], 8.70; in experiment [3] it was 8.40; in experiment [4], 7.46; in experiment [5] (setting [7]) it was 6.63.

Take `NC1CCN(c2cncc(-c3n[nH]c4ccc(-c5ccncc5)cc34)n2)CC1` [Example 102, 1-(6-(5-(4-pyridinyl)-1H-indazol-3-yl)-2-pyrazinyl)-4-piperidinamine]: the pIC50 was 5.30 in experiment [1] (setting [6]); 8.70 in experiment [2]; 8.52 in experiment [3]; 7.70 in experiment [4]; 6.70 in experiment [5] (setting [7]).

Regarding `COc1cc(OC)cc(-c2ccc3[nH]nc(-c4cncc(N5CCC(N)CC5)n4)c3c2)c1` [Example 86, 1-(6-(5-(3,5-dimethoxyphenyl)-1H-indazol-3-yl)-2-pyrazinyl)-4-piperidinamine], the pIC50 in experiment [1] (setting [6]) is 4.69; in experiment [2], 8.22; in experiment [3], 8.70; in experiment [4], 7.22; in experiment [5] (setting [7]), 6.48.

For `NC1CCCN(c2cncc(-c3c[nH]c4ccc(-c5c(F)cccc5F)cc34)n2)C1` (stereo not shown) [Example 21, 1-(6-(5-(2,6-difluorophenyl)-1H-indol-3-yl)pyrazin-2-yl)piperidin-3-amine], the pIC50 in experiment [1] (setting [6]) was below 4.50; in experiment [2] it was 8.52; in experiment [3], 8.30; in experiment [4], 7.01; in experiment [5] (setting [7]), 5.93.

As for `O=C(NC1CC1)c1ccc(F)c(-c2ccc3[nH]nc(-c4cncc(O[C@@H]5CCCNC5)n4)c3c2)c1` [Example 139, N-cyclopropyl-4-fluoro-3-(3-(6-((3R)-3-piperidinyloxy)-2-pyrazinyl)-1H-indazol-5-yl)benzamide], the pIC50 in experiment [1] (setting [6]) is 5.42; in experiment [2], 7.89; in experiment [3] it was 7.92; in experiment [4], 7.89; in experiment [5] (setting [7]), 6.34.
